# Results taken from patent US20180000085A1, “USE OF PICOLINAMIDE COMPOUNDS WITH FUNGICIDAL ACTIVITY” (DOW AGROSCIENCES LLC, priority 2014, published 2018).
# What was measured:
# Type in all cases: in vivo
# Puccinia triticina = assay: Wheat brown rust (PUCCRT) disease control on wheat seedlings; parameters: key to PUCCRT 3DC, HV activity at 100 ppm (% control rating) / PUCCRT disease control, 3DC / PUCCRT 1DP disease control rating, HV activity / PUCCRT 3DC disease control rating, HV activity / PUCCRT 3DC, LV activity at 125.1 g/H (% Control rating) / PUCCRT 1DP, LV activity at 125.1 g/H (% Control rating) / PUCCRT 3DC disease control rating, LV activity at 125.1 g/H / PUCCRT 1DP disease control rating, LV activity at 125.1 g/H / PUCCRT 3DC disease control rating, HV activity at 100 ppm / PUCCRT 1DP disease control rating, HV activity at 100 ppm / HV activity at 100 ppm PUCCRT 3DC (disease control rating) / LV activity at 125.1 g/H PUCCRT 1DP (disease control rating) / LV activity at 125.1 g/H PUCCRT 3DC (disease control rating): A: > 80; B: ≤ 80; C: Not Tested; D: No Activity Observed in the Reported Assay; details: low volume application, 125.1 g/H
# Cercospora beticola = assay: Leaf spot of sugar beets (CERCBE) disease control; details: 100 ppm; 1 Day Protectant; sugar beet
# Procedure: All fungicides were evaluated using the aforementioned method for their activity vs. all target diseases, unless stated otherwise. Wheat leaf blotch and brown rust activity were also evaluated using track spray applications, in which case the fungicides were formulated as EC formulations, containing 0.1% Trycol 5941 in the spray solutions. Wheat plants (variety Yuma) were grown from seed in a greenhouse in 50% mineral soil/50% soil-less Metro mix until the first leaf was fully emerged, with 7-10 seedlings per pot. These plants were inoculated with an aqueous spore suspension of Zymoseptoria tritici either prior to or after fungicide treatments. After inoculation the plants were kept in 100% relative humidity (one day in a dark dew chamber followed by two to three days in a lighted dew chamber at 20° C.) to permit spores to germinate and infect the leaf. The plants were then transferred to a greenhouse set at 20° C. for disease to develop. When disease symptoms were fully expressed on the 1st leaves of untreated plants, infection levels were assessed on a scale of 0 to 100 percent disease severity. Percent disease control was calculated using the ratio of disease severity on treated plants relative to untreated plants. Example F: Evaluation of Fungicidal Activity: Leaf Spot of Sugar Beets (Cercospora beticola; Bayer Code CERCBE) Sugar beet plants (variety HH88) were grown in soil-less Metro mix and trimmed regularly to maintain a uniform plant size prior to test. Plants were inoculated with a spore suspension 24 hr after fungicide treatments. Inoculated plants were kept in a dew chamber at 22° C. for 48 hr then incubated in a greenhouse set at 24° C. under a clear plastic hood with bottom ventilation until disease symptoms were fully expressed. Fungicide formulation, application and disease assessment on the sprayed leaves followed the procedures as described in the Example A.
# Alternaria solani = assay: Tomato early blight (ALTESO) disease control; parameters: key: A: > 80; B: ≤ 80; C: Not Tested; D: No Activity Observed in the Reported Assay; details: 100 ppm, 1 Day Protectant
# Procedure: All fungicides were evaluated using the aforementioned method for their activity vs. all target diseases, unless stated otherwise. Wheat leaf blotch and brown rust activity were also evaluated using track spray applications, in which case the fungicides were formulated as EC formulations, containing 0.1% Trycol 5941 in the spray solutions. Wheat plants (variety Yuma) were grown from seed in a greenhouse in 50% mineral soil/50% soil-less Metro mix until the first leaf was fully emerged, with 7-10 seedlings per pot. These plants were inoculated with an aqueous spore suspension of Zymoseptoria tritici either prior to or after fungicide treatments. After inoculation the plants were kept in 100% relative humidity (one day in a dark dew chamber followed by two to three days in a lighted dew chamber at 20° C.) to permit spores to germinate and infect the leaf. The plants were then transferred to a greenhouse set at 20° C. for disease to develop. When disease symptoms were fully expressed on the 1st leaves of untreated plants, infection levels were assessed on a scale of 0 to 100 percent disease severity. Percent disease control was calculated using the ratio of disease severity on treated plants relative to untreated plants. Example J: Evaluation of Fungicidal Activity: Tomato Early Blight (Alternaria solani; Bayer Code […]) Tomato plants (variety Outdoor Girl) were propagated in soil-less Metro mix, with each pot having one plant, and used when 12 to 14 days old. Test plants were inoculated with an aqueous spore suspension of Alternaria solani 24 hr after fungicide treatments. After inoculation the plants were kept in a dew room at 22° C. with 100% relative humidity for 48 h to permit spores to germinate and infect the leaf. The plants were then transferred to a growth room at 22° C. for disease to develop. Fungicide formulation, application and disease assessment on the sprayed leaves followed the procedures as described in the Example A.
# Phakopsora pachyrhizi = assay: Asian soybean rust (PHAKPA) disease control; parameters: key: A: > 80; B: ≤ 80; C: Not Tested; D: No Activity Observed in the Reported Assay; details: 25 ppm; for PHAKPA disease control, 1DP: 1 Day Protectant; for PHAKPA disease control, 3DC: 3 Day Curative
smiles,measurement,setting,value
COc1ccnc(C(=O)N[C@@H](C)C(=O)O[C@@H](C)[C@H](Oc2ccccc2)C(C)C)c1OCOC(C)=O [Cmpd 475],"PUCCRT 1DP, LV activity at 125.1 g/H (% Control rating)",Puccinia triticina; 1 Day Protectant,A (> 80)
same,"PUCCRT 3DC, LV activity at 125.1 g/H (% Control rating)",Puccinia triticina; 3 Day Curative,A (> 80)
same,"CERCBE disease control, 1DP",Cercospora beticola,A (> 80)
same,"ALTESO disease control, 1DP",Alternaria solani,B (≤ 80)
same,"PHAKPA disease control, 1DP",Phakopsora pachyrhizi,A (> 80)
same,"PHAKPA disease control, 3DC",Phakopsora pachyrhizi,A (> 80)
COc1ccnc(C(=O)N[C@H](C)C(=O)O[C@@H](C)[C@H](Oc2ccccc2)C(C)C)c1OCOC(C)=O [Cmpd 558],"PUCCRT 1DP, LV activity at 125.1 g/H (% Control rating)",Puccinia triticina; 1 Day Protectant,D
same,"PUCCRT 3DC, LV activity at 125.1 g/H (% Control rating)",Puccinia triticina; 3 Day Curative,B (≤ 80)
same,"CERCBE disease control, 1DP",Cercospora beticola,B (≤ 80)
same,"ALTESO disease control, 1DP",Alternaria solani,B (≤ 80)
same,"PHAKPA disease control, 1DP",Phakopsora pachyrhizi,B (≤ 80)
same,"PHAKPA disease control, 3DC",Phakopsora pachyrhizi,D
COc1ccnc(C(=O)N[C@@H](C)C(=O)O[C@@H](C)[C@@H](CC(C)C)Oc2ccccc2)c1OCOC(=O)C(C)C [Cmpd 1101],LV activity at 125.1 g/H PUCCRT 1DP (disease control rating),"Puccinia triticina; 1 Day Protectant, wheat brown rust",A (> 80)
same,LV activity at 125.1 g/H PUCCRT 3DC (disease control rating),"Puccinia triticina; 3 Day Curative, wheat brown rust",A (> 80)
same,"CERCBE disease control, 1DP",Cercospora beticola,A (> 80)
same,"ALTESO disease control, 1DP",Alternaria solani,D
same,"PHAKPA disease control, 1DP",Phakopsora pachyrhizi,A (> 80)
same,"PHAKPA disease control, 3DC",Phakopsora pachyrhizi,A (> 80)
COc1ccnc(C(=O)N[C@@H](C)C(=O)O[C@H](C)[C@@H](Oc2ccccc2)c2ccccc2)c1OCOC(C)=O [Cmpd 547],"PUCCRT 1DP, LV activity at 125.1 g/H (% Control rating)",Puccinia triticina; 1 Day Protectant,A (> 80)
same,"PUCCRT 3DC, LV activity at 125.1 g/H (% Control rating)",Puccinia triticina; 3 Day Curative,A (> 80)
same,"CERCBE disease control, 1DP",Cercospora beticola,B (≤ 80)
same,"ALTESO disease control, 1DP",Alternaria solani,B (≤ 80)
same,"PHAKPA disease control, 1DP",Phakopsora pachyrhizi,B (≤ 80)
same,"PHAKPA disease control, 3DC",Phakopsora pachyrhizi,D
COc1ccnc(C(=O)N[C@@H](C)C(=O)O[C@@H](C)[C@H](Oc2ccccc2)C(C)C)c1OC(C)=O [Cmpd 478],"PUCCRT 1DP, LV activity at 125.1 g/H (% Control rating)",Puccinia triticina; 1 Day Protectant,A (> 80)
same,"PUCCRT 3DC, LV activity at 125.1 g/H (% Control rating)",Puccinia triticina; 3 Day Curative,A (> 80)
same,"CERCBE disease control, 1DP",Cercospora beticola,B (≤ 80)
same,"ALTESO disease control, 1DP",Alternaria solani,B (≤ 80)
same,"PHAKPA disease control, 1DP",Phakopsora pachyrhizi,A (> 80)
same,"PHAKPA disease control, 3DC",Phakopsora pachyrhizi,B (≤ 80)
COc1ccnc(C(=O)N[C@H](C)C(=O)O[C@@H](C)[C@@H](Oc2ccccc2)C(C)C)c1OCOC(C)=O [Cmpd 559],"PUCCRT 1DP, LV activity at 125.1 g/H (% Control rating)",Puccinia triticina; 1 Day Protectant,D
same,"PUCCRT 3DC, LV activity at 125.1 g/H (% Control rating)",Puccinia triticina; 3 Day Curative,D
same,"CERCBE disease control, 1DP",Cercospora beticola,B (≤ 80)
same,"ALTESO disease control, 1DP",Alternaria solani,B (≤ 80)
same,"PHAKPA disease control, 1DP",Phakopsora pachyrhizi,B (≤ 80)
same,"PHAKPA disease control, 3DC",Phakopsora pachyrhizi,B (≤ 80)
CCC(CC)[C@@H](Oc1ccc(F)cc1)[C@H](C)OC(=O)[C@H](C)NC(=O)c1nccc(OC)c1OCOC(C)=O [Cmpd 587],"PUCCRT 1DP, LV activity at 125.1 g/H (% Control rating)",Puccinia triticina; 1 Day Protectant,A (> 80)
same,"PUCCRT 3DC, LV activity at 125.1 g/H (% Control rating)",Puccinia triticina; 3 Day Curative,A (> 80)
same,"CERCBE disease control, 1DP",Cercospora beticola,A (> 80)
same,"ALTESO disease control, 1DP",Alternaria solani,D
same,"PHAKPA disease control, 1DP",Phakopsora pachyrhizi,A (> 80)
same,"PHAKPA disease control, 3DC",Phakopsora pachyrhizi,B (≤ 80)
COc1ccnc(C(=O)N[C@@H](C)C(=O)O[C@@H](C)[C@H](Oc2cc(F)cc(Cl)c2)C(C)C)c1OCOC(C)=O [Cmpd 617],"PUCCRT 1DP, LV activity at 125.1 g/H (% Control rating)",Puccinia triticina; 1 Day Protectant,A (> 80)
same,"PUCCRT 3DC, LV activity at 125.1 g/H (% Control rating)",Puccinia triticina; 3 Day Curative,A (> 80)
same,"CERCBE disease control, 1DP",Cercospora beticola,B (≤ 80)
same,"ALTESO disease control, 1DP",Alternaria solani,D
same,"PHAKPA disease control, 1DP",Phakopsora pachyrhizi,A (> 80)
same,"PHAKPA disease control, 3DC",Phakopsora pachyrhizi,B (≤ 80)
COc1ccnc(C(=O)N[C@@H](C)C(=O)O[C@@H](C)[C@H](Oc2cc(F)cc(Cl)c2)c2ccccc2)c1OC(C)=O [Cmpd 642],"PUCCRT 1DP, LV activity at 125.1 g/H (% Control rating)",Puccinia triticina; 1 Day Protectant,A (> 80)
same,"PUCCRT 3DC, LV activity at 125.1 g/H (% Control rating)",Puccinia triticina; 3 Day Curative,B (≤ 80)
same,"CERCBE disease control, 1DP",Cercospora beticola,A (> 80)
same,"ALTESO disease control, 1DP",Alternaria solani,D
same,"PHAKPA disease control, 1DP",Phakopsora pachyrhizi,B (≤ 80)
same,"PHAKPA disease control, 3DC",Phakopsora pachyrhizi,B (≤ 80)
COc1ccnc(C(=O)N[C@@H](C)C(=O)O[C@@H](C)[C@@H](Oc2ccccc2)C(C)C)c1OCOC(C)=O [Cmpd 552],"PUCCRT 1DP, LV activity at 125.1 g/H (% Control rating)",Puccinia triticina; 1 Day Protectant,A (> 80)
same,"PUCCRT 3DC, LV activity at 125.1 g/H (% Control rating)",Puccinia triticina; 3 Day Curative,A (> 80)
same,"CERCBE disease control, 1DP",Cercospora beticola,B (≤ 80)
same,"ALTESO disease control, 1DP",Alternaria solani,B (≤ 80)
same,"PHAKPA disease control, 1DP",Phakopsora pachyrhizi,A (> 80)
same,"PHAKPA disease control, 3DC",Phakopsora pachyrhizi,B (≤ 80)
COc1ccnc(C(=O)N[C@@H](C)C(=O)O[C@@H](C)[C@@H](CC(C)C)Oc2ccccc2)c1OCOC(C)=O [Cmpd 557],"PUCCRT 1DP, LV activity at 125.1 g/H (% Control rating)",Puccinia triticina; 1 Day Protectant,A (> 80)
same,"PUCCRT 3DC, LV activity at 125.1 g/H (% Control rating)",Puccinia triticina; 3 Day Curative,A (> 80)
same,"CERCBE disease control, 1DP",Cercospora beticola,B (≤ 80)
same,"ALTESO disease control, 1DP",Alternaria solani,B (≤ 80)
same,"PHAKPA disease control, 1DP",Phakopsora pachyrhizi,A (> 80)
same,"PHAKPA disease control, 3DC",Phakopsora pachyrhizi,B (≤ 80)
CCC(CC)[C@@H](Oc1ccccc1)[C@H](C)OC(=O)[C@H](C)NC(=O)c1nccc(OC)c1OC(C)=O [Cmpd 479],"PUCCRT 1DP, LV activity at 125.1 g/H (% Control rating)",Puccinia triticina; 1 Day Protectant,A (> 80)
same,"PUCCRT 3DC, LV activity at 125.1 g/H (% Control rating)",Puccinia triticina; 3 Day Curative,A (> 80)
same,"CERCBE disease control, 1DP",Cercospora beticola,A (> 80)
same,"ALTESO disease control, 1DP",Alternaria solani,B (≤ 80)
same,"PHAKPA disease control, 1DP",Phakopsora pachyrhizi,A (> 80)
same,"PHAKPA disease control, 3DC",Phakopsora pachyrhizi,B (≤ 80)
